Consider 10 compounds from publication PMC3383642 (Nature, 2012).

Where “and” joins values, the source holds several entries; their conditions need not be identical. Equal entries are not always repeated. Where two headings read alike, the source gives them in different places.

For series [1], the system named is platelet aggregation in whole human blood. Description: Collagen-induced platelet aggregation in whole human blood. It is filed as cell-based.
Another series concerns the target T1, PTGS1 (ovine COX-1) (Ovis aries, UniProt P05979).
T1 sequence (P05979 25-600): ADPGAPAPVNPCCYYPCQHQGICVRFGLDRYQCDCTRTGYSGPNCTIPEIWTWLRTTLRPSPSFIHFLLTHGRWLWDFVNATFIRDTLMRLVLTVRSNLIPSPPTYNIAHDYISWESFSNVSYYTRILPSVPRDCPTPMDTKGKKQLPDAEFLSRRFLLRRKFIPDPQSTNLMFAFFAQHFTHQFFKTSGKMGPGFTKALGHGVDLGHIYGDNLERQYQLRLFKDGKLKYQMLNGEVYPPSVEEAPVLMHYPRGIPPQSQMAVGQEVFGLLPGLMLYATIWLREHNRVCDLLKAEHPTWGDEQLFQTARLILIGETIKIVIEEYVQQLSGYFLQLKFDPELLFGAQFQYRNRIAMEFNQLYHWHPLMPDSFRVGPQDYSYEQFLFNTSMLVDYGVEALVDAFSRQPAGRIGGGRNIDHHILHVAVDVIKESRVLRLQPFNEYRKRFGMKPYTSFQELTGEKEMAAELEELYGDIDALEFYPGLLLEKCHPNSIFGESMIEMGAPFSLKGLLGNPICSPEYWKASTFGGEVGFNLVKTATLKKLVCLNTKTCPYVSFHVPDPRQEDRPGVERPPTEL
Nature of the series: biochemical.

For series [2] the following is noted: human plasma, ref Thompson Reuters Integrity, cited from earlier work; for AUC [μM*h] (median): median of reported values.
Series [3] addresses HRH1 (histamine receptor H1) (Homo sapiens, UniProt P35367). Nature of the series: biochemical. It is filed as binding.
Series [4] has as its target OPRM1 (opioid receptor, mu 1) (Homo sapiens, UniProt P35372). Nature of the series: OPRM1 functional agonist assay. It is filed as cell-based. Conditions: Activity (μM) (median), target OPRM1; agonist per Figure S1E.
In series [5] the target is T2, PGR (progesterone receptor) (Homo sapiens, UniProt P06401).
T2 sequence (P06401 679-913 limits assumed): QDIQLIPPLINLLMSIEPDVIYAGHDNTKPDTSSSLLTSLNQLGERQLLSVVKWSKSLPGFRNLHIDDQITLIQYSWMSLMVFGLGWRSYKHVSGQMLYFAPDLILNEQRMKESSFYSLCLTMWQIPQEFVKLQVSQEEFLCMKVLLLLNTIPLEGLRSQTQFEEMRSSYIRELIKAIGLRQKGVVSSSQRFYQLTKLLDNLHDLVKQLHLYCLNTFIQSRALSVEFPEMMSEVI
Nature of the series: biochemical.

[6] abbreviates: Homo sapiens, Platelet, read-out: inhibition of platelet aggregation.

Chain of HRH1 (histamine receptor H1) (P35367 whole entry): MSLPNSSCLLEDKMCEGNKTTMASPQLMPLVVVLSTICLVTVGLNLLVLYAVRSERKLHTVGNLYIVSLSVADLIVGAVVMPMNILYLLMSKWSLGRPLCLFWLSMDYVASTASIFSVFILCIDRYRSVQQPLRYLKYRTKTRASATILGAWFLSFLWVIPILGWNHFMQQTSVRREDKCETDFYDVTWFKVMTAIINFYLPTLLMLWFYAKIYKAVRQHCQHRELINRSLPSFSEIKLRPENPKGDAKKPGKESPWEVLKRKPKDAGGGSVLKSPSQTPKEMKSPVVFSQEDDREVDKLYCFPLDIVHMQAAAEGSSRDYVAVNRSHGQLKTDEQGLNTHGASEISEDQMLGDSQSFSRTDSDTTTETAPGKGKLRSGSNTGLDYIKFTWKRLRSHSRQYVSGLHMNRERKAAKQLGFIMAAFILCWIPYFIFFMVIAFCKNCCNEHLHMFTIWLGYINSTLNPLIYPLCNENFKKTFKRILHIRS
Chain of OPRM1 (opioid receptor, mu 1) (P35372 whole entry): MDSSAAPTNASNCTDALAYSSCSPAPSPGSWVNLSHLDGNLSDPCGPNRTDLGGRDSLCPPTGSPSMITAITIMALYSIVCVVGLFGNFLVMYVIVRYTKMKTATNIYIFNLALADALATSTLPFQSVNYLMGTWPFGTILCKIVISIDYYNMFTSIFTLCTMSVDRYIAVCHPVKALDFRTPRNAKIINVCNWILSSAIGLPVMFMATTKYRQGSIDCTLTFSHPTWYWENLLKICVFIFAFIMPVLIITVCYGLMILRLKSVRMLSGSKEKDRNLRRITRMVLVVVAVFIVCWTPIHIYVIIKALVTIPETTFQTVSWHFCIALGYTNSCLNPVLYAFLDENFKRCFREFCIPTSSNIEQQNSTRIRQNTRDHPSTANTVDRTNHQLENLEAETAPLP

On to `COc1ccc(C(Cl)=C(c2ccc(OC)cc2)c2ccc(OC)cc2)cc1` [Chlorotrianisene], for which the “potency of inhibition of platelet aggregation in whole blood” value in series [1] (0.5, 5 and 50 μM, collagen 1 μg/mL, compared with indomethacin) is given as “almost indistinguishable from that of indomethacin”. For the same compound, the IC50 against PTGS1 (ovine COX-1) amounted to 160 nM.

Turning to `CNC(=C[N+](=O)[O-])NCCSCc1ccc(CN(C)C)o1` [Ranitidine], in series [2], the “AUC [μM*h] (median)” value was 9.67 µM·h. In series [2] (range of reported values), the “AUC” value is 5.66 to 121.90 µM·h and the Cmax was 1140 to 9110 nM.

For `CN(C)CCC=C1c2ccccc2C=Cc2ccccc21` [Cyclobenzaprine], the IC50 in series [3] (Activity (μM) (median)) is 0.02 µM; in series [3] (binding to histamine H1 receptor (HRH1), IC50), 0.021 µM and 0.02 µM. Besides, in series [2], the “AUC [μM*h] (median)” value was 0.69 µM·h. Moreover, the “AUC” value in series [2] (range of reported values) is 0.16 to 4.10 µM·h. Besides, the Cmax in series [2] (range of reported values) was 10 to 130 nM; in series [2] (read-out: median Cmax in plasma), 61 nM.

For `CC(=O)Oc1ccccc1C(=O)O` [Acetylsalicylic acid], in series [1] (setting [6]), the inhibition at 250 µM lay in the range of 42 to 48%.

For the compound `CN1CCN(C2=Nc3ccccc3Oc3ccc(Cl)cc32)CC1` [Loxapine], the “AUC [μM*h] (median)” value in series [2] was 0.21 µM·h. For the same compound, in series [2] (range of reported values), the “AUC” value was 0.03 to 0.43 µM·h and the Cmax is 20 to 410 nM.

`CCN(CC)CCCN(c1ccccc1)C1Cc2ccccc2C1` [Aprindine] came in with an IC50 in series [3] (IC50 [μM]) of 0.78 µM.

Take `CC(Cc1ccccc1)NCCC(c1ccccc1)c1ccccc1` (centres unmarked) [Prenylamine]: the IC50 stood at 7.87 µM in series [3] (Activity (μM) (median)) and 7.9 µM in series [3] (IC50 [μM]). In addition, in series [2] (range of reported values), the “AUC” value was 0.12 µM·h. The highest concentration (Cmax) in series [2] (range of reported values) is 1200 nM.

On to `COc1ccc2c(c1)c(CC(=O)O)c(C)n2C(=O)c1ccc(Cl)cc1` [indomethacin], for which the inhibition at 50 µM in series [1] (setting [6]) was found to be 50%.

As to `CC(NCCc1ccc(O)cc1)C(O)c1ccc(O)cc1` (centres unmarked) [Ritodrine], the concentration giving a half-maximal response (EC50) in series [4] came out at 9.18 µM. Further, the “AUC [μM*h] (median)” value in series [2] was 0.11 µM·h. In addition, in series [2] (range of reported values), the “AUC” value is 0.03 to 0.32 µM·h and the Cmax was 10 to 150 nM.

Turning to `C[C@H]1C[C@@H]2[C@H]([C@@H](O)C[C@@]3(C)[C@H]2CC[C@]3(O)C(=O)CO)[C@@]2(C)C=CC(=O)C=C12` [Methylprednisolone], the EC50 in series [5] turned out to be 1300 nM. Further, in series [2], the “AUC [μM*h] (median)” value was 1.28 µM·h. In series [2] (range of reported values), the “AUC” value is 0.09 to 10.76 µM·h and the maximum concentration (Cmax) was 60 to 2110 nM.

Usually IC50 stands for the point on the concentration scale where inhibition reaches its midpoint. A low value points to higher potency. The AUC is the area under the concentration-time curve, a measure of exposure. One may read the Cmax as the highest concentration seen after dosing. By inhibition is commonly meant the share of the control response that was lost under treatment. Broadly, the EC50 is the concentration that produces a half-maximal response. High values mean a less potent agent, low ones a more potent agent.
